{"source": "patent US20110166079A1", "about": "“METHODS OF TREATING CANCER WITH APOE PEPTIDES” (COGNOSCI, INC., priority 2008, published 2011)", "key": {"[1]": {"system": "B-CLL cells", "assay": "Cytotoxicity on B-CLL cells from CLL patients (MTS assay)", "settings": "for Fold Change: EC50 relative to COG056 control", "protocol": "To determine whether COG peptides could counteract the overactivation of the Akt/NFkB pathway in B-CLL cells and effectively induce apoptosis, cytotoxicity testing was performed on freshly isolated B-CLL cells from CLL patients with COG peptides. Blood from CLL patients was collected and CD5+/CD19+ CLL cells were isolated using the RosetteSep™ Human B Cell Enrichment Cocktail. This method depletes whole blood of T cells, monocytes, and NK cells using a proprietary antibody cocktail containing anti-CD14, anti-CD2 and anti-CD16 antibodies to remove T cells, monocytes, and NK cells, respectively. The antibody cocktail crosslinks unwanted cells in human whole blood to multiple red blood cells forming immunorosettes thereby increasing the density of the rosetted cells, such that they pellet along with the free RBCs when centrifuged over a buoyant density medium such as Ficoll-Paque®. The highly enriched B-cell or B-CLL cells are left at the interface between Ficoll and the plasma.\nCOG peptides were applied to the isolated B-CLL cells (0.25×10^6 cells/well in a 96 well plate) for 72 hours, after which viable cells were assessed using the MTS assay ([…]).\nAdditional B-CLL cells and peripheral blood mononuclear cells (PBMC; i.e., normal B cells) were isolated from leukemia patients and normal volunteers, respectively, and were treated with a range of COG112 concentrations."}, "[2]": {"system": "NFκB", "assay": "NFκB nuclear translocation in LPS-stimulated BV2 microglial cells (gel shift)", "assay_type": "cell-based, mouse", "settings": "nuclear extracts, FIG. 2B", "protocol": "In the dephosphorylated state, IκB binds to the transcription factor NFκB and prevents it from translocating to the nucleus to activate transcription of pro-survival proteins. […] A radiolabeled oligonucelotide containing a NFκB binding site was added to the proteins from the nuclear extracts and the proteins were subsequently separated by non-denaturing polyacrylamide gel electrophoresis. The amount of NFκB present in the nuclear extracts was detected by autoradiography (FIG. 2B). Nuclear NFκB was reduced in the presence of COG133 providing further evidence that this signal transduction cascade is suppressed in cells treated with ApoE peptides."}, "[3]": {"system": "IκB", "assay": "LPS-induced phosphorylation of IκB in BV2 microglia (Western blot)", "assay_type": "cell-based, mouse", "settings": "100 ng/mL LPS, 5 μM COG133, FIG. 2A", "protocol": "To determine whether COG peptides modulated the PI-3 kinase/Akt pathway and subsequent activation of NFκB, the phosphorylation state of proteins in the pathway was analyzed in cells exposed to bacteria or a bacterial antigen (lipopolysaccharide) in the absence and presence of COG peptides. In a first series of experiments, mouse BV2 microglia in six well plates were incubated with 100 ng/mL of LPS alone or in the presence of 5 μM COG133 (SEQ ID NO: 1) peptide. Cells were lysed and a clarified extract prepared by centrifugation. Polyacrylamide gels were loaded with 30 μg of extract per lane and run in SDS buffer. […] Membranes were then probed with an anit-phospho-IκBα antibody. Membranes were developed with Enhanced Chemiluminescence substrates (GE healthcare) and visualized by exposure to film. Membranes were then stripped and reprobed for total IκB using a non phospho-specific anti-IκBα antibody. A duplicate blot was probed with anti-GAPDH antibodies."}, "[4]": {"molecular_target": "T1, PP2A (Mus musculus, UniProt P63330)", "T1 construct": "cells were lysed and PP2A was immunoprecipitated by adding an antibody targeted to the catalytic C-subunit of PP2A; endogenous in cells; host or cells: mouse macrophagic RAW cells", "T1 sequence (P63330 whole entry)": "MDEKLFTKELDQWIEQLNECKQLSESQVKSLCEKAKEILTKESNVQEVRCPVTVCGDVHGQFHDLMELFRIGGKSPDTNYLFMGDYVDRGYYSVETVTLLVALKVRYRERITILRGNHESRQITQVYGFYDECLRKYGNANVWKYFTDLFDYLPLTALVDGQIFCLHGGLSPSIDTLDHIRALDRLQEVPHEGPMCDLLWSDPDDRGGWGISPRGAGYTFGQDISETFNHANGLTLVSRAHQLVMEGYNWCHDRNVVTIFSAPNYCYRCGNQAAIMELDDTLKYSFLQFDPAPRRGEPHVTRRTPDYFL", "assay": "PP2A activity in RAW cells (immunoprecipitation / phosphate release)", "assay_type": "cell-based", "settings": "30 minutes, 2 μM COG112, 10 nM okadaic acid, FIG. 3", "protocol": "Mouse macrophagic RAW cells were incubated with either 2 μM COG112 (SEQ ID NO: 2), 10 nM okadaic acid (an inhibitor of PP2A), or okadaic acid and COG112. After 30 minutes, cells were lysed and PP2A was immunoprecipitated by adding an antibody targeted to the catalytic C-subunit of PP2A. Half of the immunoprecipitate was separated by SDS-PAGE, blotted on to nitrocellulose, and probed with an anti-PP2AC antibody. The remaining portion was assayed for activity by adding 125 μL assay cocktail containing a phospho-threonine substrate peptide to the immunoprecipitated enzyme. After incubating at 37° C. with shaking, a 25 μL aliquot was removed and added to an ammonium molybdate solution (Upstate) that chelates free phosphate and changes color upon chelate formation. Aliquots were removed at various time intervals and the amount of free phosphate released from the peptide was determined by comparison to a phosphate standard curve. The rate of phosphate release was determined by linear fit to the time course data and was normalized to the relative PP2A concentration. […] PP2A activity was reduced in the presence of okadaic acid alone as expected. […] Thus, the active pool of PP2A in a cell can be regulated by ApoE peptides."}, "[5]": {"system": "microglial cells", "settings": "relative to COG133, microglial cells; cited from earlier work"}, "[6]": {"settings": "B-CLL cells, 72 hours, MTS assay"}}, "note": "Where two headings read alike, the source gives them in different places. Non-standard residues stand in square brackets, D forms with d. Residues, ends and D or L forms follow the SMILES beside them. No end group written: not given here. Arg(NO2) = N=C(NCCC[C@H](N)C(=O)O)N[N+](=O)[O-]; Aib = CC(C)(N)C(=O)O", "data": [{"molecule": "LLRKRLKRLHSALRVRL [COG056, reference compound]", "values": [{"measurement": "Fold Change", "setting": "[1]", "result": 1.0}, {"measurement": "EC50", "setting": "[1]; human, 72 hours", "result": "12.9 ± 4.6", "unit": "µM"}]}, {"molecule": "CC(=O)N[C@@H](CC(C)C)C(=O)N[C@@H](CCCNC(=N)N)C(=O)N[C@H](C(=O)N[C@@H](CCCNC(=N)N)C(=O)N[C@@H](CC(C)C)C(=O)N[C@@H](C)C(=O)N[C@@H](CO)C(=O)N[C@@H](Cc1c[nH]cn1)C(=O)N[C@@H](CC(C)C)C(=O)N[C@@H](CCCNC(=N)N)C(=O)N[C@@H](CCCCN)C(=O)N[C@@H](CC(C)C)C(=O)N[C@@H](CCCNC(=N)N)C(=O)N[C@@H](CCCCN)C(=O)N[C@@H](CCCNC(=N)N)C(=O)N[C@@H](CC(C)C)C(=O)N[C@@H](CC(C)C)C(N)=O)C(C)C", "note": "[COG133]", "values": [{"measurement": "nuclear NFκB", "setting": "[2]", "result": "reduced"}, {"measurement": "LPS-induced phosphorylation of IκB", "setting": "[3]", "result": "reduces"}, {"measurement": "cytotoxic activity compared in words", "setting": "[1]; [6]", "result": "slightly improved activity relative to the COG056"}, {"measurement": "Fold Change", "setting": "[1]", "result": 2.9}]}, {"molecule": "C=C1[C@@H](O)[C@@H]2O[C@]3(CC[C@H](/C=C/[C@@H](C)[C@@H]4CC(C)=C[C@@]5(O[C@H](C[C@@](C)(O)C(=O)O)CC[C@H]5O)O4)O3)CC[C@H]2O[C@@H]1[C@@H](O)C[C@H](C)[C@H]1O[C@@]2(CCCCO2)CC[C@H]1C", "note": "[okadaic acid, reference compound]", "values": [{"measurement": "PP2A activity (rate of phosphate release)", "setting": "[4]", "result": "reduced"}]}, {"molecule": "CC(=O)N[C@@H](C)C(=O)N[C@@H](CO)C(=O)NC(C)(C)C(=O)N[C@@H](CC(C)C)C(=O)N[C@@H](CCCNC(=N)N)C(=O)N[C@@H](CCCCN)C(=O)N[C@@H](CC(C)C)C(=O)NC(C)(C)C(=O)N[C@@H](CCCCN)C(=O)N[C@@H](CCCNC(=N)N)C(=O)N[C@@H](CC(C)C)C(=O)N[C@@H](CC(C)C)C(N)=O", "note": "[COG1410, Ac-AS-Aib-LRKL-Aib-KRLL-NH2] (Ac-AS[Aib]LRKL[Aib]KRLL-NH2)", "values": [{"measurement": "potency for suppressing NO production", "setting": "[5]", "result": "improved potency"}, {"measurement": "cytotoxic activity compared in words", "setting": "[1]", "result": "no difference in potency"}, {"measurement": "Fold Change", "setting": "[1]", "result": 2.3}, {"measurement": "EC50", "setting": "[1]; read-out: EC50 (cytotoxicity of COG compounds on B-CLL cells), isolated B-CLL cells, 72 hours, MTS assay", "result": "5.7 ± 3", "unit": "µM"}]}, {"molecule": "CC(C)C[C@H](NC(=O)[C@H](CC(C)C)NC(=O)[C@H](CCCNC(=N)N)NC(=O)[C@H](CCCCN)NC(=O)[C@H](CCCNC(=N)N[N+](=O)[O-])NC(=O)[C@H](CC(C)C)NC(=O)[C@H](CCCNC(=N)N)NC(=O)[C@H](CCCCN)NC(=O)[C@H](CC(C)C)NC(=O)C(C)(C)NC(=O)[C@H](CO)NC(=O)[C@H](C)NC(=O)[C@H](CC(C)C)NC(=O)[C@H](CCCNC(=N)N)NC(=O)[C@@H](NC(=O)[C@H](CCCNC(=N)N)NC(=O)[C@@H](N)CC(C)C)C(C)C)C(=O)O", "note": "[COG248, LRVRLAS(Aib)LKRL(nitroR)KRLL] (H-LRVRLAS[Aib]LKRL[Arg(NO2)]KRLL-OH)", "values": [{"measurement": "cytotoxic activity compared in words", "setting": "[1]; [6]", "result": "enhanced activity compared to COG133"}, {"measurement": "Fold Change", "setting": "[1]", "result": 5.5}]}]}
